Experimental data taken from patent US20250368667A1, “USP1 INHIBITOR” (Shanghai Qilu Pharmaceutical Research and Development …, priority 2022, published 2025).
Read-outs that look alike come from different tables or passages of the source.

Legend:
[1] = Pharmacokinetic determination in male CD1 mice; format: in vivo; conditions: PO 10 mg/kg, plasma
Protocol: Test Example 3 Pharmacokinetic Determination of the Compound of the Present Application in Male CD1 Mice
Male CD1 mice were used as test animals. After intravenous injection and oral administration, plasma samples were collected at specific time points. The concentration of the compound in plasma was detected by LC-MS/MS, and the parameters of drug metabolism and pharmacokinetics (DMPK) were calculated to evaluate the pharmacokinetic characteristics of the compounds in plasma of mice.
Compounds of Table 5 in this application; the structural formula and preparation method of compound 88 are shown in the above examples. The structural formula of comparative compound 1 is: […]
Male CD1 mice having a weight of between 20 g and 30 g; supplied by Vital River.
Administration of the compound in this application: both group IV (intravenous injection group) and group PO (oral administration group) consist of 3 mice; for group IV, the dosage is 1 mg/kg and the administration volume is 5 mL/kg; and for group PO, the dosage is 10 mg/kg and the administration volume is 10 mL/kg. The administration solvent was 5 vol % DMSO+10 vol % Soltol (Kolliphor HS 15)+85 vol % Saline (physiological saline).
• 0.02 to 0.03 mL of blood was collected from the saphenous vein in group IV at 0.083, 0.25, 0.5, 1, 2, 4, 8 and 24 hours after administration and from the saphenous vein in group PO at 0.25, 0.5, 1, 2, 4, 8 and 24 hours after administration. The collected samples were placed in EDTA-K2 test tube; plasma was separated by centrifuging at 4° C. for […], which was then stored at −80° C. until analysis of the samples.
(§1) Mice plasma samples were treated by: • 1) adding 200 μL acetonitrile to 10 μL plasma sample for precipitation, vortex mixing the mixture for 30 seconds and centrifuging at 4° C. and 3900 rpm for 15 minutes; and • 2) diluting the obtained supernatant with water for 3 folds, and analyzing the concentration of compounds to be detected by LC/MS/MS.

NCI-H1693 cells = test: USP1 CTG test: NCI-H1693 cell killing experiment; format: cell-based; conditions: 6 days, CTG detection, read-out: IC50 (inhibition of NCI-H1693 cells)
Protocol: Test Example 2 USP1 CTG Test Method
NCI-H1693 cell killing experiment was used to verify the biological activity of USP1i compound in vitro.
NCI-H1693 cells were purchased from ATCC (article number: CRL-5866) and cultured in a cell incubator with 5% CO2 (containing 5% CO2 and 95% air by volume) at 37° C.; 1640 complete medium: comprising 94 wt % RPMI-1640 liquid medium (Gibco, article number: 11875-093), 5 wt % FBS (Gibco, article number: 10099-141), and 1 wt % Pen Strep (Gibco, article number: 15070-063): Fluorescent 384-well plate (Perkin Elmer, article number: 6007279); Trypsin (Gibco, article number: 25200056); CTG Buffer (CellTiter-Glo® 2.0 Cell Viability Assay, Promega, article number: G9241).
[formula] • X: Log10 (compound complex concentration); • Y: corresponding response;
Top and Bottom: corresponding response corresponding to the same unit of Y; and it is noted that: • if X is not the logarithm of dosage, data shall be returned and converted; • if any baseline response is subtracted, the Bottom is set as a constant value of 0.0; and fitting the data to get the IC50 value; • wherein the fitting conditions may be adjusted according to the specific conditions of the data; specifically, Constraint conditions of Bottom, TOP and HillSlope may be adjusted appropriately so as to achieve the curve that is most in line with the actual situation.

[2] = tested on: OV0589 Patient-derived Xenograft (PDX); test: Pharmacodynamic experiment of OV0589 patient-derived xenograft (PDX); format: in vivo, Female BALB/c nude mice; conditions: oral; for TGI % (tumor growth inhibition rate): Day 36, OV0589 PDX in BALB/c nude mice; for inhibitory effect on tumor growth (FIG. 1): OV0589 PDX
Protocol: Test Example 5 Pharmacodynamic Experiment of OV0589 Patient-derived Xenograft (PDX)
Female BALB/c nude mice were used as test animals. After oral administration of the compound of this application, the tumor was measured and weighed regularly, and the tumor growth inhibition and tolerance in different administration groups were investigated. After the investigate, plasma and tumor were collected at a specific time point for pharmacokinetic analysis/pharmacodynamics (PK/PD) analysis.
Tumor-bearing mouse tumor (R10P8) was purchased from Sino-American Crown Biotechnology (Beijing) Co., Ltd. Ubiquityl-PCNA (Lys 164) (D5C7P) mAb antibody was purchased from Cell Siganaling company, and the article number is 13439S. PCNA (PC10) antibody was purchased from Santa Cruz company, and the article number is se-56.
Female BALB/c nude mice having a weight of between 21 and 25 g; supplier: Beijing An Kai Yibo Biotechnology Co., Ltd.
Under a temperature of 20° C. to 26° C. and a humidity of 30% to 70% and alternate illumination day and night, when the tumor (R10P8) of the tumor-bearing mice grew to a diameter of about 1 cm (the tumor size reaches 50 to 800 mm^3), the tumor was collected and cut into tumor blocks of about 2 to 3 mm^3, and the tumor block (R10P8) was inoculated subcutaneously into the right anterior scapula of female BALB/c nude mice. The tumor growth in mice was observed regularly. After 35 days of inoculation, when the tumor (R10P8) grew to an average volume of about 150 mm^3 (the range of enrollment was 86.54 mm^3 to […]), according to the tumor size and the weight of mice, StudyDirector™ (version No. 3.1.399.19, supplied by Studylog System, Inc., S. San Francisco, California, USA) was used for random grouping, and the administration was performed for these groups the next day.
Twelve mice were randomly divided into four groups, namely, G1 to G4. Group G1 is the solvent control group, and the solvent is: 10 vol % DMSO+20 vol % Solutol+70 vol % water+5 vol % DMSO+10 vol % Solutol+85 vol % saline. Group G2 was orally administrated with KSQ4279 at a dosage of 100 mg/kg (npk), and the solvent was 5 vol % DMSO+10 vol % Solutol+85 vol % saline.
The tumor growth in mice was observed regularly, and the tumor volume was measured (see FIG. 1), and the change of body weight of mice was observed regularly (see FIG. 2). After 36 days of administration, plasma and tumor were collected for PK/PD analysis.

[3] = Pharmacokinetic determination in male Beagle dogs; format: in vivo; conditions: IV 0.2 mg/kg; for AUC(0-t) / clearance: dog, plasma; for clearance: read-out: CL (overall clearance rate) (converted)
Protocol: Test Example 4 Pharmacokinetic Determination of Compounds of the Present Application in Male Beagle Dogs
Male Beagle dogs were used as test animals. After intravenous injection and oral administration, plasma samples were collected at specific time points. The concentration of the compound in plasma was detected by LC-MS/MS, and the DMPK parameters were calculated to evaluate the pharmacokinetic characteristics of the compound in dog plasma.
Compounds of Table 6 in this application. […] The structural formula of KSQ-4279 is: […]
Male Beagle dogs having a weight of 9 to 13 kg, supplied by Beijing Mars Biotechnology Co., Ltd.
Administration information of the compound in this application: both group IV (intravenous injection group) and group PO (oral administration group) consist of 3 dogs; for group IV, the dosage was 0.2 mg/kg and the administration volume was 0.5 mL/kg; for group PO, the dosage was 3 mg/kg and the administration volume was 3 mL/kg. The administration solvent was 5 vol % DMSO+10 vol % Solutol (Kolliphor HS 15)+85 vol % Saline (physiological saline).
0.5 mL of blood was collected from the head vein in group IV at 0.083, 0.25, 0.5, 1, 2, 4, 8 and 24 hours respectively after administration, and from the head vein in group PO at 0.25, 0.5, 1, 2, 4, 8 and 24 hours respectively after administration. The collected samples were placed in EDTA-K2 test tube; plasma was separated by centrifuging at 2 to 8° C. and 2000 g for 10 minutes, which was then stored at −80° C. until analysis of the samples.
as §1, with “Dog” for “Mice”, “50” for “10”, “seconds,” for “seconds”, “of the” for “of”

[4] = target: recombinant human His6-USP1/His6-UAF1 composite protein (Homo sapiens (Human), UniProt O94782); test: USP1 enzyme activity detection (Ub-Rho fluorescence); format: biochemical; conditions: USP1/UAF1, Ub-Rho substrate 300 nM, 1 hour pre-incubation; read-out: IC50 (enzymatic inhibition of USP1)
Sequence of recombinant human His6-USP1/His6-UAF1 composite protein (O94782 whole entry): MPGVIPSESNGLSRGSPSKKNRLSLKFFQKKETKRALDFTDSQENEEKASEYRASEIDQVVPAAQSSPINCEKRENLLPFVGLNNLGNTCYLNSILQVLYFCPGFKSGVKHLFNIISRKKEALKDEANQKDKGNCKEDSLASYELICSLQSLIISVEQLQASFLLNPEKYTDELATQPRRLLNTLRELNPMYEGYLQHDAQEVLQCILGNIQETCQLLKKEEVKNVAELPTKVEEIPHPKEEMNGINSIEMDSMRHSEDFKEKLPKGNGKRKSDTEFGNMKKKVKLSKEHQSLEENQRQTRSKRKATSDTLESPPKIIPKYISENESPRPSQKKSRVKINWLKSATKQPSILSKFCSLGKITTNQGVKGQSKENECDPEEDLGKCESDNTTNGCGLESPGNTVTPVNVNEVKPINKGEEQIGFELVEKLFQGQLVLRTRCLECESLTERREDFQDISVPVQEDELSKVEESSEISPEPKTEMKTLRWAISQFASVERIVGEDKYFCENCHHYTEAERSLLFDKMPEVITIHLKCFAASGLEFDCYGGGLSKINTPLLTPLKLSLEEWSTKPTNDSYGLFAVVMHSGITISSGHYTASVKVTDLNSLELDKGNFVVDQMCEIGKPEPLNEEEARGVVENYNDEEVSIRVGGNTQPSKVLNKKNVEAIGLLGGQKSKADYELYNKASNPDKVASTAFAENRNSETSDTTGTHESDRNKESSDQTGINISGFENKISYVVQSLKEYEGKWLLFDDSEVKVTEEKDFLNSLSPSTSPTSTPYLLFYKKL
Sequence of recombinant human His6-USP1/His6-UAF1 composite protein (Q8TAF3 whole entry partner): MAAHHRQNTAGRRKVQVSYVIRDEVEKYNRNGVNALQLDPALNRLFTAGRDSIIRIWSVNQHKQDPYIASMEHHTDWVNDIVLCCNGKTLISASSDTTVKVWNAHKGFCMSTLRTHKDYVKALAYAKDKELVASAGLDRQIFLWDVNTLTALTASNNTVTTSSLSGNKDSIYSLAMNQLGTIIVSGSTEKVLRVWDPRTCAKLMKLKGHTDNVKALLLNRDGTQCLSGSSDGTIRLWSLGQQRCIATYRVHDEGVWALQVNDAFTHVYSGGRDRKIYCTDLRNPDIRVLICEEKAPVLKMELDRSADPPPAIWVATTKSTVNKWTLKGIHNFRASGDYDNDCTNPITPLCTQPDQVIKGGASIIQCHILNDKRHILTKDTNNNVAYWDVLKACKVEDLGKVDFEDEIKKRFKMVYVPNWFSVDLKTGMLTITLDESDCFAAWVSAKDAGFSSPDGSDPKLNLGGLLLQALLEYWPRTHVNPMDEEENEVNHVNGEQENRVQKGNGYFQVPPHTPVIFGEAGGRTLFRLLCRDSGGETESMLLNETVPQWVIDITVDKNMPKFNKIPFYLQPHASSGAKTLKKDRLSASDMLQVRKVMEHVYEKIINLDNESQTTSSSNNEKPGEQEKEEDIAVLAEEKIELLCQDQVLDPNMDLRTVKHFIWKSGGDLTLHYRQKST

| SMILES | Blood concentration [1] | Curve area [1] | AUC(0-t) [3] [ng·h/mL] | clearance [3] [mL/min/kg] | IC50 (NCI-H1693 cells; Homo sapiens, 144 h) [nM] | TGI % (tumor growth inhibition rate) ([2]; 100 mg/kg) [%] | inhibitory effect on tumor growth (FIG. 1) ([2]; 100 mg/kg) | further results |
| --- | --- | --- | --- | --- | --- | --- | --- | --- |
| COc1ncnc(C2CC2)c1-c1ncc2c(n1)n(Cc1ccc(-c3nc(C(F)(F)F)cn3C)cc1)c1nccn21 [Comparative compound 1, reference compound] | 2246 | 6558 | – | – | 53.7 | – | – | – |
| COc1ncnc(C2CC2)c1-c1ncc2c3ccc(C#N)cc3n(Cc3ccc4c(c3)CCCn3cc(C(F)(F)F)nc3-4)c2n1 [Compound 58] | – | – | – | – | – | 107.7 | the best inhibitory effect on tumor growth | TGI % (tumor growth inhibition rate) ([2]; 30 mg/kg): 97.5%; AUClast [3]: 190 ng·h/mL; CL (overall clearance rate) [3]: 15.8 mL/min/kg; IC50 (NCI-H1693 cells): 13 nM |
| COc1ncnc(C2CC2)c1-c1ncc2c(n1)n(Cc1ccc(-c3nc(C(F)(F)F)cn3C)cc1)c1nncn21 [Comparative compound 2, reference compound] | – | – | – | – | 174 | – | – | – |

Further lines, with some results ahead:

| Blood concentration [1] | Curve area [1] | AUC(0-t) [3] [ng·h/mL] | clearance [3] [mL/min/kg] | SMILES | IC50 (NCI-H1693 cells; Homo sapiens, 144 h) [nM] | TGI % (tumor growth inhibition rate) ([2]; 100 mg/kg) [%] | inhibitory effect on tumor growth (FIG. 1) ([2]; 100 mg/kg) | further results |
| --- | --- | --- | --- | --- | --- | --- | --- | --- |
| 4803 | 44062 | 236 | 15 | COc1ncnc(C2CC2)c1-c1ncc2c3cn(C)nc3n(Cc3ccc(-c4nc(C(F)(F)F)cn4C(C)C)cc3)c2n1 [Compound 88, 6-(4-cyclopropyl-6-methoxypyrimidin-5-yl)-8-(4-(1-isopropyl-4-(trifluoromethyl)-1H-imidazol-2-yl)benzyl)-2-methyl-2,8-dihydropyrazolo[4′,3′: 4,5]pyrrolo[2,3-d]pyrimidine] | 9.2 | – | – | IC50 [4]: 4.5 nM |
| – | – | 124 | 28.3 | COc1ncnc(C2CC2)c1-c1ncc2cnn(Cc3ccc(-c4nc(C(F)(F)F)cn4C(C)C)cc3)c2n1 [KSQ-4279, reference compound] | – | 85.7 | obviously worse than compound 58 (dosage of 100 mg/kg) | – |
